Assay results taken from article PMC5316530, “The Ratio of 2-AG to Its Isomer 1-AG as an Intrinsic Fine Tuning Mechanism of CB1 Receptor Activation” (Frontiers in Cellular Neuroscience, 2017).

Target: T1, CB1 receptor (Mus musculus, UniProt P47746)
T1 construct: gene Cnr1; pcDNA3 CB1 (Addgene plasmid # 13391) overexpressed in COS7 cells
Assay: Fluo-8 Ca2+ imaging in CB1-transfected COS7 cells; concentration-response, blocked by AM251
Format: cell-based

T1 sequence (P47746 whole entry): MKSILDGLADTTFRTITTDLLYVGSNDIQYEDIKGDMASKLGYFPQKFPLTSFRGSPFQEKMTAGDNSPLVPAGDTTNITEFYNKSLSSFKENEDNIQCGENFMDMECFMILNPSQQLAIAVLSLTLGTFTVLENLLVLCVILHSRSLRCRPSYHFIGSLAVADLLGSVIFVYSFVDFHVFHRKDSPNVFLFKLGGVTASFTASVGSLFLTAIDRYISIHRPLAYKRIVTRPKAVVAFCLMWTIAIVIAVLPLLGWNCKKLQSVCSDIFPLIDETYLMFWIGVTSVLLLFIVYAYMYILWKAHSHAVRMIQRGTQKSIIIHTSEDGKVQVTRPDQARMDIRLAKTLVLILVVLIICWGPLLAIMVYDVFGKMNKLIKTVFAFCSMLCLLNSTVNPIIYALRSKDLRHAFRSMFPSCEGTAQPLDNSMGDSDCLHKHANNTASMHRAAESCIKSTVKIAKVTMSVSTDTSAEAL

| Structure (SMILES) | EC50 |
| --- | --- |
| CCCCC/C=C\C/C=C\C/C=C\C/C=C\CCCC(=O)OC(CO)CO [2-AG] | 0.6 µM |
| CCCCC/C=C\C/C=C\C/C=C\C/C=C\CCCC(=O)OC[C@@H](O)CO [1-AG] | 1.9 µM |
